Tests used:
Format in all cases: in vitro ADME
[1] = test system: CYP2C9; test: CYP450 inhibition study of LKMS in dog liver microsomes, tolbutamide 4-hydroxylation; conditions: probe at Km, 15 min, 0.2 mg/mL protein, n = 3
Description: (§1) All experiments were performed in triplicate.
(§2) Inhibition assessment of CYP450 isoforms in DLM was performed with a fixed concentration of model probe substrates and a series of concentrations of LKMS ranging from 0 to 80 μM. The concentration of probe substrates was at a concentration of Km in this study. […] Mode inhibition was examined based on a primary Lineweaver–Burk plot and a secondary plot.
(§3) The IC50 values and enzyme kinetic parameters were determined by plotting relative activities over the logarithm of the concentration of LKMS using GraphPad (v.8.0.2, CA, USA). The mode of the inhibitor was analyzed using a Lineweaver–Burk plot and a secondary plot for inhibition constant (Ki and αKi) values. All experimental data are shown as mean ± standard deviation (SD).

[2] = target: T1, CYP2B6 (Canis lupus familiaris, UniProt P24460); test: Irreversible inhibition (IC50 shift) in dog liver microsomes
T1 construct: from tissue; host or cells: dog liver microsomes (DLM)
T1 sequence (P24460 1-494): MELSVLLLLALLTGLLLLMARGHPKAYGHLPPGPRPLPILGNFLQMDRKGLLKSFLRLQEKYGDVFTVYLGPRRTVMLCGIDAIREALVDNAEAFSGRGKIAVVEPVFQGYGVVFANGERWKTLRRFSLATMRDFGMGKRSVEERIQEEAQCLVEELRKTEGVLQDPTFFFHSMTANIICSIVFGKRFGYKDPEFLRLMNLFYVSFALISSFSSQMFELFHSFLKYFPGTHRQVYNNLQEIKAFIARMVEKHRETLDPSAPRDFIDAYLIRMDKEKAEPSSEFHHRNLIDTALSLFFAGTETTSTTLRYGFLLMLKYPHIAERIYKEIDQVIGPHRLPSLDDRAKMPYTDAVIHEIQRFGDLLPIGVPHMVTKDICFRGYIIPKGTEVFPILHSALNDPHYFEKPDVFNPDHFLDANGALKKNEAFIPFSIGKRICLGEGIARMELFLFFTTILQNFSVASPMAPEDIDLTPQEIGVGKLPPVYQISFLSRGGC
Description: (§4) To characterize the reversible or irreversible mechanism of CYP450 inhibition via LKMS, the shifted IC50 values were used to determine whether the inhibition of LKMS on CYP450 was time-dependent. […] The above mixture was then incubated for another 30 min in the presence of NADPH. The concentrations of LKMS were designated as 0.2, 2, 4, 6, 8, 10, 20, 40, and 80 μM, and the concentration of each probe substrate was based on each Km value. The concentrations of the probe substrates of CYP2A6, CYP2B6, and CYP2D6 were at single concentrations approximating their Km values.

[3] = target: T2, CYP2D6 (Canis lupus familiaris, UniProt Q29473); test: as above
T2 construct: from tissue; host or cells: dog liver microsomes (DLM)
T2 sequence (Q29473 1-500): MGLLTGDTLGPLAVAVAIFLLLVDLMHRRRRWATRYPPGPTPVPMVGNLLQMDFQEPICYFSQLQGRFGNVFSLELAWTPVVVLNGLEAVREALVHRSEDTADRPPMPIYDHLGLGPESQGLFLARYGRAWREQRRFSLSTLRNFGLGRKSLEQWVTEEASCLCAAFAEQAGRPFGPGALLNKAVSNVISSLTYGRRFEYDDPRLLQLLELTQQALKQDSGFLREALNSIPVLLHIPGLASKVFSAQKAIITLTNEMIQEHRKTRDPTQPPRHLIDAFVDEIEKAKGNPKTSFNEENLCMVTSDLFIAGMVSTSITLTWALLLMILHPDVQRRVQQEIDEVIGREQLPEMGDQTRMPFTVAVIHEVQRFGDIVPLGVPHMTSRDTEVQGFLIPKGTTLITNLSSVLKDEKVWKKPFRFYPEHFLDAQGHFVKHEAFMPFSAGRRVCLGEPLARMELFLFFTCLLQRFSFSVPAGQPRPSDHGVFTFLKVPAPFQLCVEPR
Description: as §4

[4] = test system: CYP2A6; test: as above
Description: as §4

[5] = target: T3, CYP1A2 (Canis lupus familiaris, UniProt P56592); test: CYP450 inhibition study of LKMS in dog liver microsomes (cocktail, UPLC-MS/MS), phenacetin O-deethylation; conditions: probe at Km, 15 min, 0.2 mg/mL protein, n = 3
T3 construct: from tissue; host or cells: dog liver microsomes (DLM)
T3 sequence (P56592 1-512): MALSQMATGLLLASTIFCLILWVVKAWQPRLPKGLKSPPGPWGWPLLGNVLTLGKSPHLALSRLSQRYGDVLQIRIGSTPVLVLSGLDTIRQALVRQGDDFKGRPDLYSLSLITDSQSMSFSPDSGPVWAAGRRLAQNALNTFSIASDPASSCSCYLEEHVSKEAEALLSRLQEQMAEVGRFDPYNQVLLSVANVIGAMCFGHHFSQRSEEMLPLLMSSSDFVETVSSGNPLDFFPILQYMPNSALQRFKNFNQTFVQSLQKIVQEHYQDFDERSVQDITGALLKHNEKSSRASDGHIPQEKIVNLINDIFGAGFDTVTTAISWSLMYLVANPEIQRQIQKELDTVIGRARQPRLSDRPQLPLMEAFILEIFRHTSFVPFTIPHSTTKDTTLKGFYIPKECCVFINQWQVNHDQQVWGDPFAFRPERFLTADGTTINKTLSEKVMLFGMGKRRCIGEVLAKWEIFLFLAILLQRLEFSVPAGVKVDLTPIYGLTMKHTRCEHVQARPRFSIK
Description: as §1, §2, §3

[6] = test system: CYP450 enzymes in dog liver microsomes; test: Chemical inhibition experiments: LKMS disappearance rate with selective CYP450 inhibitors; conditions: n = 3
Description: The effect of selective inhibitors on the rate of LKMS disappearance was investigated to identify the metabolizing enzymes of LKMS. The total volume of the incubation system was 200 μL, which contained the tested compound, inhibitors, PBS (pH = 7.4), LKMS, and NADPH. The study was performed via incubation with different inhibitors of CYP450 as follows: α-naphthoflavone (CYP1A2, 2 μM), pilocarpine (CYP2A6, 8 μM), Thio-TEPA (CYP2B6, 6 μM), sulfaphenazole (CYP2C9, 6 μM), quinidine (CYP2D6, 8 μM), sodium diethyldithiocarbamate (CYP2E1, 20 μM), and ketoconazole (CYP3A4, 2 μM). The sample incubated without inhibitors was used as a negative control. The sample was incubated with dimethyl sulfoxide (DMSO) (25%) as a positive control in this study. Following this pilot, confirmatory experiments were conducted by incubating with DLM in the presence of specific CYP450 inhibitors.

## Lekethromycin [LKMS]
[1]
  IC50: > 200 µM
[2]; CYP2B6, 30 min preincubation at 37 °C with and without NADPH
  IC50 fold-shift, Shift Ratio (−NADPH/+NADPH): 0.88
[2]; CYP2B6, judged from IC50 fold-shift <1.5
  Time-dependent inhibition: might not be a time-dependent inhibitor
[3]; CYP2D6, 30 min preincubation at 37 °C with and without NADPH
  IC50 fold-shift, Shift Ratio (−NADPH/+NADPH): 1.10
[3]; CYP2D6, judged from IC50 fold-shift <1.5
  Time-dependent inhibition: might not be a time-dependent inhibitor
[4]; CYP2A6, 30 min preincubation at 37 °C with and without NADPH
  IC50 fold-shift, Shift Ratio (−NADPH/+NADPH): 1.29
[4]; CYP2A6, judged from IC50 fold-shift <1.5
  Time-dependent inhibition: might not be a time-dependent inhibitor
[5]
  IC50: > 200 µM
[6]; CYP1A2 inhibitor α-naphthoflavone 2 μM
  Decrease of biotransformation rate of LKMS: about 50%
[6]; CYP2A6 inhibitor pilocarpine 8 μM
  Decrease of biotransformation rate of LKMS: about 50%
[6]; CYP2B6 inhibitor Thio-TEPA 6 μM
  Decrease of biotransformation rate of LKMS: about 50%
[6]; CYP2C9 inhibitor sulfaphenazole 6 μM
  Decrease of biotransformation rate of LKMS: about 50%
[6]; CYP2E1 inhibitor sodium diethyldithiocarbamate 20 μM
  Decrease of biotransformation rate of LKMS: about 50%

From article PMC10609143, “Inhibitory Mechanisms of Lekethromycin in Dog Liver Cytochrome P450 Enzymes Based on UPLC-MS/MS Cocktail Method” (Molecules, 2023)
